Experimental data from patent US20260174701A1, “HIGH STRENGTH SINGLE UNIT DOSE FORMULATIONS AND METHODS OF USE THEREOF” (Praxis Precision Medicines, Inc., priority 2023, published 2026).

Tests used:
[1] = biological target: CaV3.3 (Homo sapiens, UniProt Q9P0X4); test: In vitro electrophysiology studies; assay type: cell-based
[2] = tested on: animal model of ET; test: Animal model of ET; details: in vivo
[3] = biological target: CaV3.1 (Homo sapiens, UniProt O43497); test: In vitro electrophysiology studies; assay type: cell-based
Chain of CaV3.1 (O43497 whole entry): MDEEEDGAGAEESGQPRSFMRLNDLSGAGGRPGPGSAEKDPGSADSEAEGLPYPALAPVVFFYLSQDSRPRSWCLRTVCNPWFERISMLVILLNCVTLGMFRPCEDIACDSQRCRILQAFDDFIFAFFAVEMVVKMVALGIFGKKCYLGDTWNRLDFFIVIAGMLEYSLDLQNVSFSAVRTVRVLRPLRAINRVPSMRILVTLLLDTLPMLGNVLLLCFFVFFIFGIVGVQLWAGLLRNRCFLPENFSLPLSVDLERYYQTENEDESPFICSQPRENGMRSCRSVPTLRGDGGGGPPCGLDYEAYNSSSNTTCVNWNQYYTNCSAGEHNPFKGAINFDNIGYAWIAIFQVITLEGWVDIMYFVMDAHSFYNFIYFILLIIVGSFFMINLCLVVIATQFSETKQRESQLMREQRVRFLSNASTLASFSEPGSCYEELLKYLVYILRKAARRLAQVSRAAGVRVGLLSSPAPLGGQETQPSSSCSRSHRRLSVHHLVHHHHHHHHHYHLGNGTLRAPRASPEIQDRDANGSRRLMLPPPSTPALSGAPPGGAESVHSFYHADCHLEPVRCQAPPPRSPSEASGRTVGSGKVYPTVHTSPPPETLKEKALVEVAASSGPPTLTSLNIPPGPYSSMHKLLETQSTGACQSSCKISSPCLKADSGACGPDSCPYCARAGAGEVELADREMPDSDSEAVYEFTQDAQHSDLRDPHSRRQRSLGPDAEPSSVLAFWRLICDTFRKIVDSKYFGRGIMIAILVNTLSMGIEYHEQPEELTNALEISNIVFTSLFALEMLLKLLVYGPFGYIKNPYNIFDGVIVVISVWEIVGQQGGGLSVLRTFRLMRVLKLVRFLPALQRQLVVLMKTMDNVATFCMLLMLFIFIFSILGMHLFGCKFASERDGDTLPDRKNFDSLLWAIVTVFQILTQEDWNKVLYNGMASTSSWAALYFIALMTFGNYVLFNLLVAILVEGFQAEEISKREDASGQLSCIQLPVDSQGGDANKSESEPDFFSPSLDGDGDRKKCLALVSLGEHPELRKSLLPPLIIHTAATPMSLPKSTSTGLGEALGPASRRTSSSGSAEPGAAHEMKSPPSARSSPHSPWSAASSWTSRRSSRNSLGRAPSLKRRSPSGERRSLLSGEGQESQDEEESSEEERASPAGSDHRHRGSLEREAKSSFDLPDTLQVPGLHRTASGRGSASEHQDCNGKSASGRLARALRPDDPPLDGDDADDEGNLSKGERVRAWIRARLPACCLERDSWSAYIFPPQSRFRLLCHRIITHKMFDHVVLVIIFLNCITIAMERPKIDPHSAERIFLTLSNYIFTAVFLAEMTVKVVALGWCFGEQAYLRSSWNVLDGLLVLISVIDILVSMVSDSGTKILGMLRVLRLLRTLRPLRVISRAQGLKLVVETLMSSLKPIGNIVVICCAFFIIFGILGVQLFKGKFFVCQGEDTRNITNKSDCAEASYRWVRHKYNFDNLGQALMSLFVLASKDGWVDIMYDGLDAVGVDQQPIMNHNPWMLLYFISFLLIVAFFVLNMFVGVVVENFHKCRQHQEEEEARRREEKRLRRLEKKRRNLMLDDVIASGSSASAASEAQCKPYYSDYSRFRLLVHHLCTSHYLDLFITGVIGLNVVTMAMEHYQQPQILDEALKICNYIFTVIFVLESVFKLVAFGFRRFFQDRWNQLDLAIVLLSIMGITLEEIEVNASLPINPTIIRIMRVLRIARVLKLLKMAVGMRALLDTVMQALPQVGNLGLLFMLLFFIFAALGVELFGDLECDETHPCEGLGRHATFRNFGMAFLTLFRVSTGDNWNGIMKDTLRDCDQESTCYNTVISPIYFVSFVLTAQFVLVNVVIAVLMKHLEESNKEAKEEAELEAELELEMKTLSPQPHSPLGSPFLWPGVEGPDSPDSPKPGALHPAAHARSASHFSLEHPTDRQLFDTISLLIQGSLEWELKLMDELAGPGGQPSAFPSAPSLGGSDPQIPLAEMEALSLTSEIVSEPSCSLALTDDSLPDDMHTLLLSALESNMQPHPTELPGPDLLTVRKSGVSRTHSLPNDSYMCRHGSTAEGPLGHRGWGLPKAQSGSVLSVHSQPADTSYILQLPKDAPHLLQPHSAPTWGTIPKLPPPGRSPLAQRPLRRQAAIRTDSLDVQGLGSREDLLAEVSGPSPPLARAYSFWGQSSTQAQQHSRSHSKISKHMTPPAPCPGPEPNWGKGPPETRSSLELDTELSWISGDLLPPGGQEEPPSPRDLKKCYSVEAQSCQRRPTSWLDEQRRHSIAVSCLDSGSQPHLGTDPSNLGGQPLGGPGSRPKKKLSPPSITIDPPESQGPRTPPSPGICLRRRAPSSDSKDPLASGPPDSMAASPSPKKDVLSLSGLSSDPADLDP

Chain of CaV3.3 (Q9P0X4 whole entry): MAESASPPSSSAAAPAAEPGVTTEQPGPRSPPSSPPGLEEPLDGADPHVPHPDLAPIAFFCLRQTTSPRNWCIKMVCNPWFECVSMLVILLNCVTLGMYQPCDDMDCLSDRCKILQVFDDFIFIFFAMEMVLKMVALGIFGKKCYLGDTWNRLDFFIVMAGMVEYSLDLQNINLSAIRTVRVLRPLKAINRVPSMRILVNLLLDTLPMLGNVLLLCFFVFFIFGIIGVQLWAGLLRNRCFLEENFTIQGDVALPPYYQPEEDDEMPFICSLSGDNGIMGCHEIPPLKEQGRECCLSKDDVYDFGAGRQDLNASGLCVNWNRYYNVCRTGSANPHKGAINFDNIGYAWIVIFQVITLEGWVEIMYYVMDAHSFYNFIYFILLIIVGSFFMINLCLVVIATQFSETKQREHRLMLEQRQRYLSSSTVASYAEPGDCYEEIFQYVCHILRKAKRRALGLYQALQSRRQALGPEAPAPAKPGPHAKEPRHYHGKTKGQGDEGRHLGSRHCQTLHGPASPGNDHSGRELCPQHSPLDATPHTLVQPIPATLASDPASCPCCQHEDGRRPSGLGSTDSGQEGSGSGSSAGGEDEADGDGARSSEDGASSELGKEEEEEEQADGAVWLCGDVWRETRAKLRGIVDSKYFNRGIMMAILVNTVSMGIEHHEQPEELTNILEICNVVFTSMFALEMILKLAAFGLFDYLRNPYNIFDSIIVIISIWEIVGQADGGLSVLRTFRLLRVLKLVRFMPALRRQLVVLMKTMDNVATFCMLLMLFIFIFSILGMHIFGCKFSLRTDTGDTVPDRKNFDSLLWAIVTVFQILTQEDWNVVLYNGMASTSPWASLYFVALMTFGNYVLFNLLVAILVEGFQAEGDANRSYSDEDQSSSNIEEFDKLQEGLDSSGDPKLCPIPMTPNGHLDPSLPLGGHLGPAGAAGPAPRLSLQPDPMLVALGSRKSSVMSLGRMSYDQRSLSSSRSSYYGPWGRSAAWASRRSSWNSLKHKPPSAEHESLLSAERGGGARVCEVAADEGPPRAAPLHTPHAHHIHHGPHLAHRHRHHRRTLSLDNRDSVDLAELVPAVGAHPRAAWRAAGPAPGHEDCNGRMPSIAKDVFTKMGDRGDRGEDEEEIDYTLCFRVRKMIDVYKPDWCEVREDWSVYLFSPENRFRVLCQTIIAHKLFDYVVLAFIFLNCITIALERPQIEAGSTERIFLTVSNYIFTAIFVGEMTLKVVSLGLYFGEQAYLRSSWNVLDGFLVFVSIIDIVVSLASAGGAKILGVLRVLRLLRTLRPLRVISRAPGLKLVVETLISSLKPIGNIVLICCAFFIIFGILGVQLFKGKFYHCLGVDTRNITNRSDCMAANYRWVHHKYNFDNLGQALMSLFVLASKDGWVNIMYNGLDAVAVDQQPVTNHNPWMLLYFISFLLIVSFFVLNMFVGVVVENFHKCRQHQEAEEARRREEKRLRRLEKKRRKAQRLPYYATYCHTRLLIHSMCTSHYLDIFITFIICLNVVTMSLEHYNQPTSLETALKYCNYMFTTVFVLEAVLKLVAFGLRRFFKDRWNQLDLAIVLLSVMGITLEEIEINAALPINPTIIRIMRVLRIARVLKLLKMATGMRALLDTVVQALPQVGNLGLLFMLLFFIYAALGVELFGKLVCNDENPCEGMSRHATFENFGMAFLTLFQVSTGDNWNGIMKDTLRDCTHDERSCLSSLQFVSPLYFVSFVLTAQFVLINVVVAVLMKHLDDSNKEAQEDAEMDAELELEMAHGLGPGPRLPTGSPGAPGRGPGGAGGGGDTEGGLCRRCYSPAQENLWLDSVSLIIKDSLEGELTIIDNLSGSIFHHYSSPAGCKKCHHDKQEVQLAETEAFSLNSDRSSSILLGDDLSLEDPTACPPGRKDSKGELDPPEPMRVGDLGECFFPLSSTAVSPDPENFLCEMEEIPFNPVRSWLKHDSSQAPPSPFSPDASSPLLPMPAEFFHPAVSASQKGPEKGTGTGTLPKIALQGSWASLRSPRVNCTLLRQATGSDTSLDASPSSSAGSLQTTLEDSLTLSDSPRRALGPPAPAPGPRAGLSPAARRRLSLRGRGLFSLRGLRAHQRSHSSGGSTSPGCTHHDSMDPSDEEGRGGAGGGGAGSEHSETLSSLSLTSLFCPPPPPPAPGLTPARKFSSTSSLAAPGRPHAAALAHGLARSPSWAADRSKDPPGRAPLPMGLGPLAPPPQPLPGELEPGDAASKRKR

Potency for T-type Ca2+ channels [1]: nanomolar | Potency for T-type Ca2+ channels [3]: nanomolar
SMILES: CC(C)(C)NC(=O)CN1CCC(CNC(=O)c2cc(F)cc(Cl)c2)CC1.Cl [PRAX-944, N-((1-(2-(tert-butylamino)-2-oxoethyl)piperidin-4-yl)methyl)-3-chloro-5-fluorobenzamide hydrochloride]
Activity in an animal model of ET [2]: robust activity
